The record followed here is PubChem BioAssay AID977607 (Broad Institute, 2014).

Calls of active or inactive are those of the source.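 Rule for the calls: active = curve reaches 40% activation over neutral controls at an AC40 no higher than the top valid tested concentration; inconclusive = no clear call, values can overlap the other calls; inactive = signal moving opposite to the expected increase, and the rest.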

For the test, the system named is INS-1E GLuc insulin secretion reporter, luminescence, 2-3 h. Description: activators of glucose-dependent insulin secretion, dose response, cell-based, INS-1E, Gaussia luciferase, luminescence, cherry-pick, set 2 (AID 977607).
For the compound `Cc1ccc(C)c(OCC(=O)Nc2nonc2NC(=O)COc2cc(C)ccc2C)c1`, the AC40 is 5.44 µM.

As for `CN1CCN(C2Cc3ccccc3Sc3cc(C(F)(F)F)ccc32)CC1` (stereo not drawn), the AC40 is 16 µM.

Consider `CCCCCCN1C[C@H](n2cc(C3CC3)nn2)[C@@H](O)C[C@@H]1c1ccc(C)cc1`, for which the AC40 is 7.33 µM.

As for `O=C(NC1CCCCC1)C(c1ccc(F)cc1)N(Cc1ccccc1)C(=O)CN1C(=O)c2ccccc2S1(=O)=O` (stereo not drawn), the AC40 is 27.1 µM.

Take `O=C(NC(=S)Nc1ccc(NC(=O)c2cccs2)cc1)c1cc2ccccc2o1`: the AC40 was 14.3 µM.

For `CC1CCN(S(=O)(=O)c2ccc(C(=O)OCc3ccc4c(c3)OCO4)cc2)CC1`, the AC40 is 13.4 µM.

Take `CCOC(=O)[C@]12Cc3c(cc(OC)c(OC)c3OC)[C@H]1N(C1CCCCC1)C(=O)c1cc(OC)ccc12`: the AC40 was 15.5 µM.

Consider `CC(C)(C)c1nc2ccc(Cl)cn2c1CC1CCCCC1`, for which the AC40 is 16 µM.

For the compound `CC(C)CC#Cc1ccc2c(c1)O[C@@H](CN(C)Cc1cccc(F)c1)[C@H](C)CN([C@@H](C)CO)S2(=O)=O`, the AC40 is 7.13 µM.

In the case of `CCn1c(SCc2cc(=O)[nH]c3ccccc23)nc2c1c(=O)n(C)c(=O)n2C`, the AC40 was 1.42 µM.

Turning to `CCOC(=O)Cc1nn(Cc2ccccc2)c(=O)c2ccccc12`, the AC40 was 1.61 µM.

For `O=C(Nc1ccc2ccccc2c1)c1cccc2ccccc12`, the AC40 is 8.55 µM.

For the compound `CNc1nc(Sc2ccccc2)cc(C(F)(F)F)n1`, the AC40 was > 35 µM (inactive).

For the compound `CCCCCCn1c(-c2cccs2)n[nH]c1=S`, the AC40 is > 35 µM (inactive).

On to `COc1ccccc1CCn1cnc(-c2ccccc2OC)c1CC(C)C`, for which the AC40 was 14.6 µM.

In the case of `CCc1ccc(OCC(=O)NC(=S)Nc2ccc(F)cc2)c(Br)c1`, the AC40 was 10 µM.

With `O=C(COc1ccc2c(c1)OCO2)Nc1ccc2c(c1)oc1ccccc12`, the AC40 is 16.4 µM.

Turning to `CCOc1ccc(-n2nnnc2-c2nc3ccccc3s2)cc1`, the AC40 is 6.78 µM.

Take `COc1ccc(C#Cc2ccc([C@@H]3[C@H](CO)N4CCCCN(Cc5ccccc5F)C[C@@H]34)cc2)cc1`: the AC40 was 6.53 µM.

For the compound `O=C(c1ccc(F)cc1)N1C[C@@H]2N[C@H](C1)C2c1ccc(/C=C/c2ccccc2)cc1` (stereo partly drawn), the AC40 was 6.56 µM.

For the compound `Cc1nn(-c2ccccc2)c2c1C(O)CC(C)(C)C2` (stereo not drawn), the AC40 was 3.51 µM.

As for `COc1ccc(S(=O)(=O)N2CCc3ccccc3C2)cc1OC`, the AC40 was 28.9 µM.

Consider `CC(C)CC(NC(=O)c1ccc(Cl)cc1)C(=O)OCC(=O)c1ccc2c(c1)NC(=O)CO2` (stereo not drawn), for which the AC40 was 2.36 µM.

Take `O=C(O)c1ccc(-n2nc(-c3ccccc3)c3ccccc3c2=O)cc1`: the AC40 is > 35 µM (inactive).

Regarding `COc1ccc(NC(=O)COc2ccc(C(=O)NC3CCCc4ccccc43)cc2OC)cc1` (stereo not drawn), the AC40 was 6.54 µM.

`CCS(=O)(=O)Nc1ccc(-c2cc(-c3ccccc3)c3cc(C)ccc3n2)cc1`: the AC40 was 6.45 µM.

`CS(=O)(=O)c1cnc(-c2ccccc2)nc1Oc1ccc(F)cc1`: the AC40 was 15.1 µM.

In the case of `O=C(Nc1ccc2c(c1)OCO2)c1sc2cc(Cl)ccc2c1Cl`, the AC40 is 12 µM.

Consider `C=CCNC(=S)N/N=C/c1ccc(-c2cc(Cl)ccc2Cl)o1`, for which the AC40 is 5.15 µM.

Consider `COc1ccc(C(O)c2nc(-c3ccc(OC)c(OC)c3)cs2)cc1` (stereo not drawn), for which the AC40 was > 35 µM (inactive).

For `COCCNc1nc(Oc2cncc(Cl)c2)c2sccc2n1`, the AC40 is 2.88 µM.

For `C=CCOc1ccc(-c2nc3c(c(=O)[nH]c(=O)n3CCCC)n2C)cc1Br`, the AC40 was 11.1 µM.

`COc1cc2c(cc1OC)-c1cc(Nc3ccc(N(C)C)cc3)nc(=O)n1CC2`: the AC40 is 5.31 µM.

Regarding `O=C(CCN1CCOCC1)c1ccc2c(c1)OCCO2`, the AC40 is 14.5 µM.

Turning to `Cc1cccc(NC(=O)c2ccc(OCc3c(C)noc3C)cc2)c1C`, the AC40 was 1.54 µM.

For the compound `c1ccc(-c2nnc3ccc(N4CCC5(CC4)OCCO5)nn23)cc1`, the AC40 is > 35 µM (inactive).

For the compound `CCNC(=O)NC(=O)C(C)OC(=O)c1oc2ccccc2c1CSC1CCCCC1` (stereo not drawn), the AC40 was 5.51 µM.

Consider `O=C(NCC1OCCc2ccccc21)c1ccc(NC(=O)c2ccc(Cl)cc2Cl)cc1` (stereo not drawn), for which the AC40 is 20.4 µM.

On to `CCCn1c2ccccc2c2cn[nH]c(=O)c21`, for which the AC40 was 16.4 µM.

With `CC(C)(C)c1ccc(OCC(=O)Nc2ccc(-c3nc4cccnc4o3)cc2)cc1`, the AC40 is 9.2 µM.

With `NS(=O)(=O)c1ccc(NC(=O)COC(=O)c2cn(-c3ccccc3)nc2-c2ccc(F)cc2)cc1`, the AC40 is 4.82 µM.

With `CCSc1nnc(NC(=O)c2csc3c2CCCC3)s1`, the AC40 was 2.22 µM.

As for `COc1ccc(C(=O)Cc2ccc3c(c2)OCO3)c(O)c1`, the AC40 was > 35 µM (inactive).

As to `Cc1cccc(S(=O)(=O)N2CCCCN3[C@@H](CO)[C@@H](c4ccc(C#CC(C)C)cc4)[C@@H]3C2)c1`, the AC40 was 18.2 µM.

`O=C(Nc1ccccc1)c1nnsc1S(=O)(=O)c1ccc(Cl)cc1`: the AC40 was 1.21 µM.

Regarding `COc1ccccc1CCn1cnc(-c2cccc(F)c2)c1C(C)C`, the AC40 was 14 µM.

As to `Fc1ccc(-c2ccc(C3[C@@H]4CN(Cc5cccc(F)c5)C[C@H]3N4)cc2)cc1` (stereo partly drawn), the AC40 is 5.48 µM.

`CC1(Cc2ccc(C(F)(F)F)o2)C(=O)Nc2ccc(-c3cccc(C(F)(F)F)c3)cc21` (stereo not drawn): the AC40 is 8.84 µM.

As for `COc1ccc(CCNC(=O)NS(=O)(=O)c2ccc(C)cc2)cc1OC`, the AC40 was > 35 µM (inactive).

Turning to `CNC[C@@H](Cc1ccccc1)NC[C@@H](CC1CCCCC1)NCCCc1ccccc1`, the AC40 was > 35 µM (inactive).

As for `Cc1ccccc1-c1ccc(C2[C@@H]3CN(S(=O)(=O)c4ccccc4C)C[C@H]2N3)cc1` (stereo partly drawn), the AC40 was 9.88 µM.

In the case of `Cc1cc(C)c2nc(N(CCCN(C)C)C(=O)c3ccc4c(c3)CCCC4)sc2c1`, the AC40 is 6.21 µM.

Consider `Cc1ccc(-c2n[nH]c(=S)n2/N=C/c2c(C)nn(-c3ccccc3)c2C)cc1`, for which the AC40 is 11.2 µM.

In the case of `COC(=O)C1=C(C)N(Cc2cccc(C(F)(F)F)c2)C(=NCc2ccc(C(F)(F)F)cc2)NC1c1ccccc1` (stereo not drawn), the AC40 was 9.69 µM.

As for `CCOC(=O)c1c(C)n(-c2ccc(C)cc2)c2ccc(OCC(O)CN3CCN(C)CC3)cc12` (stereo not drawn), the AC40 was 12.3 µM.

As for `OC(CNCCc1ccc(C(F)(F)F)cc1)COC(c1ccccc1)c1ccccc1` (stereo not drawn), the AC40 is 6.21 µM.

For the compound `O=C(c1cccs1)c1coc2ccc(O)c(CN3CCOCC3)c12`, the AC40 is > 35 µM (inactive).

Take `CN(C)CCOc1ccc(-c2c(-c3ccccc3)sc3ccccc23)cc1`: the AC40 is 2.75 µM.
